Reference: patent publication US20230099293A1, “OGA INHIBITOR COMPOUNDS” (priority 2019, published 2023)

Key:
hOGA = target: T1, hOGA (Homo sapiens, UniProt O60502); experiment: OGA cellular assay (ICC detection of O-GlcNAcylated proteins in HEK293 cells inducible for P301L mutant human Tau); format: cell-based; parameters: Emax: dose or concentration left out as unconfirmed; details: for EC50: Cellular hOGA, pEC50, Table 5, HEK293 P301L Tau cells, 6 hours incubation, O-GlcNAcylation readout; for Emax: HEK293, read-out: Cellular Emax (%)
T1 construct: endogenous in cells; host or cells: HEK293 cells inducible for P301L mutant human Tau (isoform 2N4R)
T1 sequence (O60502 1-916): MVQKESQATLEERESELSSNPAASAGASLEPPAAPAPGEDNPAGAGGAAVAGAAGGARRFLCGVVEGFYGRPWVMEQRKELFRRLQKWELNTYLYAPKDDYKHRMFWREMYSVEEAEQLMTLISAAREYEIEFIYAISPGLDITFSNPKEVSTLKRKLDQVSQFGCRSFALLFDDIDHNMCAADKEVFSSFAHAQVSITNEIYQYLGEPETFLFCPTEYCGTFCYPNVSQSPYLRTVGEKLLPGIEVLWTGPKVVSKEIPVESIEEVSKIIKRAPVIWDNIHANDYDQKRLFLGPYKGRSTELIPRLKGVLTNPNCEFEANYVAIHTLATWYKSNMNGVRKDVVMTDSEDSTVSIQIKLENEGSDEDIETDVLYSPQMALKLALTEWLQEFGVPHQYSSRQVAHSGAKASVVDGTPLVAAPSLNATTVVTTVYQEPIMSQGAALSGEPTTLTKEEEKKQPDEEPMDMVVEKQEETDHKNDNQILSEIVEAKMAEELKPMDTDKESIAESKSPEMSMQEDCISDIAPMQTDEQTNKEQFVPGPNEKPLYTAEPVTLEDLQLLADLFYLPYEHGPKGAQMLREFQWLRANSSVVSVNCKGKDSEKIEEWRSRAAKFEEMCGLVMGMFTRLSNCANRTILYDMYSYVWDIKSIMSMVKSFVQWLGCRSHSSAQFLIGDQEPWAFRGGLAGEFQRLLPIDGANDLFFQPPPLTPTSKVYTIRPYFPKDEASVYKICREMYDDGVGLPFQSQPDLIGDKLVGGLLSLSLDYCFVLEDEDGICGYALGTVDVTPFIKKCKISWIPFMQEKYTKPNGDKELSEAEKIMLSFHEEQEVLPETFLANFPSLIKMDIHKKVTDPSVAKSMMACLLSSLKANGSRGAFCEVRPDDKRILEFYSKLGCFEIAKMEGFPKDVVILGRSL
Protocol: HEK293 cells inducible for P301L mutant human Tau (isoform 2N4R) were established at Janssen. Thiamet-G was used for both plate validation (high control) and as reference compound (reference EC50 assay validation). OGA inhibition is evaluated through the immunocytochemical (ICC) detection of O-GlcNAcylated proteins by the use of a monoclonal antibody (CTD110.6; Cell Signaling, #9875) detecting O-GlcNAcylated residues as previously described (Dorfmueller et al. 2010 Chemistry & biology, 17:1250). Inhibition of OGA will result in an increase of O-GlcNAcylated protein levels resulting in an increased signal in the experiment. Cell nuclei are stained with Hoechst to give a cell culture quality control and a rough estimate of immediate compounds toxicity, if any. ICC pictures are imaged with a Perkin Elmer Opera Phenix plate microscope and quantified with the provided software Perkin Elmer Harmony 4.1.
Cells were propagated in DMEM high Glucose (Sigma, #D5796) following standard procedures. 2 days before the cell assay cells are split, counted and seeded in Poly-D-Lysine (PDL) coated 96-wells (Greiner, #655946) plate at a cell density of 12,000 cells per cm^2 (4,000 cells per well) in 100 μl of Assay Medium (Low Glucose medium is used to reduce basal levels of GlcNAcylation) (Park et al. 2014 The Journal of biological chemistry 289:13519). At the day of compound test medium from assay plates was removed and replenished with 90 μl of fresh Assay Medium. 10 μl of compounds at a 10 fold final concentration were added to the wells. Plates were centrifuged shortly before incubation in the cell incubator for 6 hours. DMSO concentration was set to 0.2%. Medium is discarded by applying vacuum. For staining of cells medium was removed and cells washed once with 100 μl D-PBS (Sigma, #D8537). From next step onwards unless other stated assay volume was always 50 μl and incubation was performed without agitation and at room temperature. Cells were fixed in 50 μl of a 4% paraformaldehyde (PFA, Alpha aesar, #043368) PBS solution for 15 minutes at room temperature. […] Before analysis samples were washed 2 times manually for 5 minutes in ICC base buffer.
Imaging is performed using Perkin Elmer Phenix Opera using a water 20× objective and recording 9 fields per well. Intensity readout at 488 nm is used as a measure of O-GlcNAcylation level of total proteins in wells. To assess potential toxicity of compounds nuclei were counted using the Hoechst staining. IC50-values are calculated using parametric non-linear regression model fitting. As a maximum inhibition Thiamet Gat a 200 uM concentration is present on each plate. In addition, a concentration response of Thiamet G is calculated on each plate.

[1] = target: T2, recombinant human Meningioma Expressed Antigen 5 (MGEA5), also referred to as O-GlcNAcase (OGA) (Homo sapiens, UniProt O60502); experiment: OGA biochemical assay (inhibition of FM-GlcNAc hydrolysis, fluorescence); details: for IC50: Enzymatic hOGA, pIC50, Table 5, full length OGA 2 nM, FM-GlcNAc 100 uM, 6 h at room temperature; for Emax: read-out: Enzymatic Emax (%)
T2 construct: Full length OGA enzyme was purchased at OriGene (cat #TP322411); purchased OriGene TP322411
T2 sequence (O60502 1-916): T1 sequence (O60502 1-916)
Protocol: The hydrolysis FM-GlcNAc (Marker Gene technologies, cat #M1485) results in the formation of β-D-N-glucosamineacetate and fluorescein. The fluorescence of the latter can be measured at excitation wavelength 485 nm and emission wavelength 538 nm. An increase in enzyme activity results in an increase in fluorescence signal. Full length OGA enzyme was purchased at OriGene (cat #TP322411). The enzyme was stored in 25 mM Tris.HCl, pH 7.3, 100 mM glycine, 10% glycerol at −20° C. […] The assay was performed in 200 mM Citrate/phosphate buffer supplemented with 0.005% Tween-20. 35.6 g Na2HIPO42H2O (Sigma, #C0759) were dissolved in 1 L water to obtain a 200 mM solution. […] The buffer to stop the reaction consists of a 500 mM Carbonate buffer, pH 11.0. […] OGA was used at a 2 nM concentration and FM-GlcNAc at a 100 uM final concentration. Dilutions were prepared in assay buffer.
Plates were pre-incubated for 60 min at room temperature and then 2 μl FM-GlcNAc substrate mix added. […] Plates were briefly centrifuged for 1 min at 1000 rpm and incubate at room temperature for 6 h. To stop the reaction 5 μl STOP buffer were added and plates centrifuge again 1 min at 1000 rpm. Fluorescence was quantified in the Thermo Scientific Fluoroskan Ascent or the PerkinElmer EnVision with excitation wavelength 485 nm and emission wavelength 538 nm.
For analysis a best-fit curve is fitted by a minimum sum of squares method. From this an IC50 value and Hill coefficient was obtained. High control (no inhibitor) and low control (saturating concentrations of standard inhibitor) were used to define the minimum and maximum values.

| Structure (SMILES) | melting point | EC50 (hOGA) | Emax (hOGA) | IC50 [1] | Emax [1] |
| --- | --- | --- | --- | --- | --- |
| CC(=O)n1nc(C)c(Nc2nccc3c2ncn3CC(=O)N(C)C)c1C [Compound 37] | 175.4 °C | > 1 µM | 8% | > 10 µM | 2% |
| Cc1n[nH]c(C)c1Nc1nccc2c1ncn2CC(=O)N(C)C [Compound 38] | 283.5 °C | > 1 µM | 6% | 0.912 µM | 90% |
| Cc1c(C(F)(F)F)nn(C)c1Nc1nccc2c1ncn2CC(=O)N(C)C [Compound 39] | 240 °C | > 1 µM | 12% | 0.631 µM | 94% |
| Cc1c(-c2cccc(F)c2)nn(C)c1Nc1nccc2c1ncn2CC(=O)N(C)C [Compound 40] | 230 °C | > 1 µM | 27% | 0.105 µM | 102% |
| Cc1nn(-c2ccccc2)c(C)c1Nc1nccc2c1ncn2CC(=O)N(C)C [Compound 41] | 126.3 °C | > 1 µM | 44% | 0.0282 µM | 95% |
| Cc1ccc(-n2nc(C)c(Nc3nccc4c3ncn4CC(=O)N(C)C)c2C)cc1C [Compound 42] | 144.7 °C | 0.295 µM | 70% | 0.0219 µM | 93% |
| Cc1cc(C)cc(-n2nc(C)c(Nc3nccc4c3ncn4CC(=O)N(C)C)c2C)c1 [Compound 43] | 154.7 °C | 0.437 µM | 65% | 0.0148 µM | 99% |
| COc1ccc(-n2nc(C)c(Nc3nccc4c3ncn4CC(=O)N(C)C)c2C)cc1 [Compound 44] | 199.9 °C | 0.457 µM | 64% | 0.0275 µM | 99% |
| Cc1ccc(-n2nc(C)c(Nc3nccc4c3ncn4CC(=O)N(C)C)c2C)cc1 [Compound 45] | 214.9 °C | 0.55 µM | 94% | 0.0234 µM | 94% |
| Cc1cc(C#N)cc(C)c1Nc1nccc2c1ncn2CC(=O)N(C)C [Compound 46] | 263.4 °C | 0.468 µM | 69% | 0.0135 µM | 92% |
| CC(C)c1cc(F)cc(Cl)c1Nc1nccc2c1ncn2CC(=O)N(C)C [Compound 47] | 251.8 °C | 0.0676 µM | 110% | 0.0135 µM | 97% |
| Cc1cc(C(F)(F)F)cc(C)c1Nc1nccc2c1ncn2CC(=O)N1CCCC1 [Compound 49] | 196.6 °C | 0.646 µM | 57% | 0.0933 µM | 95% |
| Cc1cc(C(F)(F)F)cc(C)c1Nc1nccc2c1ncn2CC(=O)N1CCC1 [Compound 50] | 176.4 °C | 0.933 µM | 48% | 0.126 µM | 94% |
| Cc1cc(C(F)(F)F)cc(C)c1Nc1nccc2c1ncn2CC(=O)N(C)C1CC1 [Compound 52] | 199.8 °C | 0.138 µM | 73% | 0.00813 µM | 102% |
| [2H]C([2H])([2H])N(C(=O)Cn1cnc2c(Nc3c(C)cc(C(F)(F)F)cc3C)nccc21)C([2H])([2H])[2H] [Compound 53] | 208.2 °C | 0.135 µM | 87% | 0.00724 µM | 103% |
| CCCCn1cnc2c(Nc3c(C)cc(F)cc3C)nccc21 [Compound 57] | 184.45 °C | 0.513 µM | 62% | 0.0537 µM | 99% |
| Cc1cc(C(F)(F)F)cc(C)c1Nc1nccc2c1ncn2Cc1ccon1 [Compound 59, N-(2,6-dimethyl-4-(trifluoromethyl)phenyl)-1-(isoxazole-3-ylmethyl)-1H-imidazo[4,5-c]pyridine-4-amine] | 154.7 °C | – | 72% | 0.00912 µM | 101% |
| Cc1cc(C(F)(F)F)cc(C)c1Nc1nccc2c1ncn2-c1ccc(F)cn1 [Compound 60, N-(2,6-Dimethyl-4-(trifluoromethyl)phenyl)-1-(5-fluoropyridin-2-yl)-1H-imidazo[4,5-c]pyridin-4-amine] | 186.5 °C | 0.933 µM | 44% | 0.117 µM | 100% |
| Cc1cc(C(F)(F)F)cc(C)c1Nc1nccc2c1ncn2CC(=O)N(C)C [Compound 61, 2-(4-((2,6-Dimethyl-4-(trifluoromethyl)phenyl)amino)-1H-imidazo[4,5-c]pyridin-1-yl)-N,N-dimethylacetamide] | 207.65 °C | 0.107 µM | 87% | 0.00933 µM | 98% |
| Cc1cc(C(F)(F)F)cc(C)c1Nc1ncc(Cl)c2c1ncn2CC(=O)N(C)C [Compound 62, 2-[7-Chloro-4-[2,6-dimethyl-4-(trifluoromethyl)anilino]imidazo[4,5-c]pyridin-1-yl]-N,N-dimethyl-acetamide] | 239.9 °C | > 1 µM | 13% | 0.692 µM | 91% |
